Patent US12582696B2, “Debaryomyces species as an indicator of non-healing ulcers in Crohn's disease” (Washington University, priority 2019, dated 2026)
In brackets after ≈: the same amount, converted by molar mass.

Columns and labels:
Debaryomyces sp. = assay: mini screen with known water-soluble antifungals (MIC, dose-response); assay type: cell-based
[1] = test system: mucosal wounds in the distal colon of mice; assay: colonic biopsy injury model, mucosal wound repair in VNAM-treated mice; assay type: in vivo; settings: day 12 post-injury
From the text: To test the role of microbes in mucosal wound repair, a biopsy injury model was used where the timing and site of injuries are known in each experiment. Wound repair in this model occurs in distinct phases. Barrier re-establishment begins immediately upon injury and lasts for 4 days, and is characterized by the formation of wound associated epithelial (WAE) cells that cover the denuded mucosa. Wound channel formation phase (day 4-day 8), involves extensive proliferation of epithelial cells in crypts adjacent to the wound, forming channels that emanate towards the center of the wound. These two phases culminate in the formation of new crypts that is complete within 12 days post-injury.
C57BL6 WT were purchased from Jackson Laboratories (Bar Harbor, ME) or Taconic Biosciences and acclimatized in a specific pathogen-free facility for 1 week before conducting any experiment. […]
(§1) For hematoxylin and eosin (H&E) staining, wounds were collected and embedded in optimum cutting temperature (OCT) formulation (Thermo Fisher Scientific), and 5 μm frozen sections were obtained using a cryostat. […] Images were analyzed using Olympus CellSens Standard imaging software to measure the wound bed length defined as the distance between the two farthest crypts in the center of the wound bed. 2-3 wounds per mouse were analyzed and wound bed lengths were averaged to obtain one value per mouse. […]

PGE2 = assay: wound PGE2 levels in VNAM administered, biopsy injured mice; assay type: in vivo; settings: day 6 post-injury, NS-398 vs vehicle, p<0.01
Experimental: Antibiotic-treated (VNAM) mice received the following cocktail for 4 weeks prior to biopsy injury until the day of sacrifice in drinking water: 0.5 g/L Vancomycin, 1 g/L Neomycin, 1 g/L Ampicillin, 1 g/L Metronidazole, and 1 g/L Kool-aid. Control mice received Kool-aid alone. Mice were treated with VNAM in the following figures: FIG. 8A-F, FIG. 9A-E, FIG. 12A-D, FIG. 13, FIG. 14, and FIG. 19A. […]

[2] = test system: mucosal wounds in the distal colon of mice; assay: biopsy injury model in WT mice without VNAM or D. hansenii gavage; assay type: in vivo; settings: amphotericin B in the absence of D. hansenii gavage and VNAM; day 12 post-injury
From the text: C57BL6 WT were purchased from Jackson Laboratories (Bar Harbor, ME) or Taconic Biosciences and acclimatized in a specific pathogen-free facility for 1 week before conducting any experiment. Biopsy forceps and a miniaturized colonoscope system (Karl Storz) were used to create mucosal wounds in the distal colon of mice as described previously. Briefly, mice were anesthetized using ketamine/xylazine and stool pellets were removed from the colon by flushing with PBS. Next, 3 French biopsy forceps were inserted into the colon and 3-5 thickness areas of mucosa and submucosa were removed under the guidance of an endoscopy camera. Biopsy injured mice were euthanized, and wounds were collected on days 4, 6, 8, and 12 to evaluate healing. Biopsy injury was performed by investigators blinded to the treatments.
as §1

D. hansenii = assay: biopsy injury model in WT mice gavaged with D. hansenii CDA1 (human clinical isolate); assay type: in vivo; settings: WT mice gavaged with D. hansenii CDA1 with or without amphotericin B; day 12 post-injury
Experimental: For inoculation experiments, yeasts were expanded in Sabouraud dextrose agar (SDA) for 2-4 days at 30° C. prior to gavage. Mice were gavaged with pure culture of D. hansenii (obtained from the wounds of antibiotic-treated mice or inflamed tissues of Crohn's disease) or Saccharomyces cerevisiae (ATCC) at ˜10^6 CFU/mouse, unless otherwise stated, in 150 μl of PBS. Controls received PBS only. For all inoculation experiments, gavage occurred 2 days before injury, on the day of injury, and 2, 4, and 6 days post-injury unless otherwise stated.
To ascertain whether human clinical isolates of D. hansenii were capable of inducing repair defects, the following experiments were conducted. WT mice were gavaged with D. hansenii CDA1 (Table 3) using methods similar to those described above. The CDA isolate was associated with impaired crypt regeneration in the biopsy injury model, and this effect was reversed by amphotericin B treatment (FIG. 11G, I).

fungi = fungi in colonic wounds of biopsy-injured mice (ITS qPCR, anti-fungal antibody staining, ITS sequencing, SDA culture); assay type: in vivo; settings: VNAM-treated mice; amphotericin B orally once daily from 3 days before injury to day 6 post-injury
Experimental: Quantitative PCR was performed on the mice of Ex. 4 to identify fungal microbiota within the intestinal wounds. About three fecal pellets or 10-50 mg samples of intestinal tissue were resuspended in Tris buffer supplemented with 1000 U/ml of lyticase (Sigma), 1 mM EDTA, and 0.2% β-mercaptoethanol (Sigma). DNA was extracted using either the DNeasy PowerLyzer PowerSoil kit (Qiagen) or DNA mini stool extraction kit (Qiagen) according to manufacturer's instructions.
Quantitative PCR was performed using SYBR Green (Roche) or SYBR Green Jumpstart Taq Ready mix (Sigma) on an Eppendorf Mastercycler (Eppendorf) using the following primers as described previously (23, 42, 52)—Saccharomyces cerevisiae: forward (5′-[…]-3′, SEQ ID NO:3), reverse (5′-[…]-3′, SEQ ID NO:4), Candida tropicalis: forward (5′-[…]-3′, SEQ ID NO:5), reverse (5′-[…]-3′, SEQ ID NO:6), Debaryomyces hansenii: forward (5′-[…]—3′, SEQ ID NO:7), reverse (5′-[…]-3′, SEQ ID NO:8) and ITS1-2: forward (5′-[…]-3′, SEQ ID NO:9), reverse (5′-[…]-3′, SEQ ID NO:10). The following conditions were used: 94° C. for 10 minutes, followed by 40 cycles of 94° C. for 30 seconds, 55° C. for 30 seconds, and 72° C. for 2 minutes, ending with 72° C. for 30 minutes. […]

**Q.** With `CC[C@H](C)C[C@H](C)CCCCCCCCC(=O)N[C@H]1C[C@@H](O)[C@@H](NCCN)NC(=O)[C@@H]2[C@@H](O)CCN2C(=O)[C@H]([C@H](O)CCN)NC(=O)[C@H]([C@H](O)[C@@H](O)c2ccc(O)cc2)NC(=O)[C@@H]2C[C@@H](O)CN2C(=O)[C@H]([C@@H](C)O)NC1=O` [caspofungin] as the molecule, how does the MIC (Debaryomyces sp.; Debaryomyces) read?
**A.** Its MIC is 0.62 µg/mL (≈ 0.567 µM).

**Q.** And the “effectiveness compared to azoles in the antifungal screen” value (Debaryomyces sp.; against Debaryomyces sp., water-soluble antifungals)?
**A.** Its value is “most effective at lowest concentrations”.

**Q.** For `CS(=O)(=O)Nc1ccc([N+](=O)[O-])cc1OC1CCCCC1` [NS-398], which “wound bed length, NS-398 vs vehicle” value ([1]; VNAM pre-treated mice, NS-398 2.5 mg/kg i.p. twice daily days 4-10) is on record?
**A.** The value was “not significant”.

**Q.** And the “wound PGE2 levels” value (PGE2)?
**A.** Its value is “ablation of PGE2”.

**Q.** With `C[C@@H]1[C@H](O)[C@@H](C)/C=C/C=C/C=C/C=C/C=C/C=C/C=C/[C@H](O[C@@H]2O[C@H](C)[C@@H](O)[C@H](N)[C@@H]2O)C[C@@H]2O[C@](O)(C[C@@H](O)C[C@@H](O)[C@H](O)CC[C@@H](O)C[C@@H](O)CC(=O)O[C@H]1C)C[C@H](O)[C@H]2C(=O)O` [amphotericin B] as the molecule, how does the “repair of WT mice (wound bed length)” value [2] read?
**A.** The value was “did not demonstrate any obvious defects in repair”.

**Q.** And the “impaired crypt regeneration caused by D. hansenii CDA1 (wound bed length)” value (D. hansenii)?
**A.** The value was “reversed”.

**Q.** What about the “crypt regeneration (wound bed length)” value ([1]; VNAM-treated mice, amphotericin B orally) of the same molecule?
**A.** Its value is “reversed the crypt regeneration defects”.

**Q.** What about the “fungal antigen detection in the wounds” value (fungi) of the same molecule?
**A.** The value was “reduced fungal antigen detection”.
